# Measurements: PMC8486872, “A rational blueprint for the design of chemically-controlled protein switches” (Nature Communications, 2021)
# Values joined by “and” are separate entries in the source; they are usually repeats but may differ in a detail not shown here. Equal values may be shown once.
# How the values were obtained:
# Format in all cases: cell-based
# [1] = system: Gal4/UAS SEAP expression in HEK293T cells; assay: Drug specificity of CDH-TFs; conditions: Suppl Fig 7b
# Description: Supplementary Figure 7: Dose-dependence and reversibility characterization of CDHs in CDH-
# a) Background signal of SEAP reporter in the absence of the CDH-TF system. HEK239T cells were
# (§1) transfected with SEAP reporter S132 and treated with 1 µM Drugs 12 hours post transfection.
# (§2) Quantification of SEAP was performed 24 hours after drug treatment. b) Drug specificity of CDH-TFs. […]
# [2] = system: SEAP and Luciferase expression in HEK293T cells; assay: MIMO designer cells (AIR-1/2-GEMS + CDH-3-TF); conditions: for Luciferase: Fig5c, turn OFF via CDH-3-TF; for AIR-1-GEMS controlled SEAP expression: Fig S13c; for AIR-2-GEMS controlled SEAP expression: Fig S13e
# Source text: We first engineered MIMO cells to respond to two drugs with distinct outputs (Fig. 5a) by co-transfecting the CDH-3-TF with either AIR-1-GEMS (Fig. 5b) or AIR-2-GEMS (Fig. 5c).
# Fig. 5 Orthogonal chemical switches enable implementation of multi-input multi-output control modes in mammalian cells. a Scheme of multi-inputs multi-outputs (MIMO) designer cells where two drugs control two different outputs. b, c Cells were co-transfected with AIR-1/2-GEMS and CDH-3-TF regulate SEAP and Luciferase expression, respectively. […] AIR-1/2-GEMS coupled with SEAP expression circuits were co-transfected with CDH-1/2-TF circuits which control the Luciferase production. Respective drug concentrations ranged from 0.001 nM to 1 µM. All values presented are mean ± s.d. of three replicates and curves were fitted by four-parameters nonlinear regression. b, c, e, f, h, i Source data are available in the source data file.
# Supplementary Figure 13: Orthogonal chemical switches enable implementation of multi-input multi-output control modes in mammalian cells. a) Dual drug toxicity tests in 293T cells. […]
# concentrations of 1 nM, 10 nM, 100 nM and 1000 nM each drug in cell culture medium. CCK8 assay was performed 24 hours after drug treatment. Each bar represents the mean of three biological replicates ± s.d, overlaid with a scatter dot plot of the original data points. b-c) Cells were co-transfected with AIR-1-GEMS and CDH-3-TF regulate SEAP and Luciferase expression, respectively. Drug concentrations ranged from 0.001 nM to 1 µM and different combinations were added depending on the protein components, Drug-1 only (b) and Drug-3 only (c). d-e) Cells were co-transfected with AIR-2-GEMS and CDH-3-TF regulate SEAP and Luciferase expression, respectively. Drug concentrations ranged from 0.001 nM to 1 µM and different combinations were added depending on the protein […]
# 1-TF and CDH-3-TF circuits. Drug-1 concentrations ranged from 0.001 nM to 1 µM (left) and 1 µM Drug-1 with serial diluted Drug-3 from 0.001 nM to 1 µM (right). g) Quantification of SEAP activity controlled by CDH-1-GEMS and CDH-3-GEMS circuits. Drug-1 concentrations ranged from 0.001 nM to 1 µM (left) and Drug-3 dilution along with 1 µM Drug-1 (right). h-i) Quantification of SEAP and Luciferase activities under Drug-1. AIR-1-GEMS coupled with SEAP expression circuits (i) and CDH-1-TF circuits which control the Luciferase production (j). j-k) Quantification of SEAP and Luciferase activities under Drug-2. AIR-2-GEMS coupled with SEAP expression circuits (k) and CDH-2-TF circuits which control the Luciferase production (l). b-k) Each data point represents the mean of n = 3 biological replicates, and the dose-dependent curve were fitted using four-parameter nonlinear regression.
# [3] = system: SEAP expression in HEK293T cells; assay: Background signal of SEAP reporter and single-construct controls
# Description: Supplementary Figure 7: Dose-dependence and reversibility characterization of CDHs in CDH- […]
# as §1, §2
# Background signal of SEAP reporter in the absence of the CDH-GEMS system. HEK293T cells were transfected with pLS566 SEAP reporter plasmids and treated with drugs. Quantification of SEAP was performed 24 hours post drug treatment. f) SEAP activity upon transfecting single or paired […]
# Quantification of SEAP activity of three CDHs with DMSO (dark color), specific (light color) and unspecific drug treatment (gray). […]
# (culture medium) in panels of b, c, f and g were collected every 12 hours. Values were normalized to zero based on the SEAP expression at time 0. a, b, e, f, g) The bar charts show the mean ± s.d. of n = 3 biologically independent samples overlaid with a scatter dot plot of the original data points.
# [4] = Fig5c Luciferase via CDH-3-TF, four-parameter fit
structure (smiles),measurement,setting,value
"COc1cc2c(cc1OC(C)C)[C@H](c1ccc(Cl)cc1)N(c1ccc(N(C)C[C@H]3CC[C@H](N4CCN(C)C(=O)C4)CC3)cc1)C(=O)C2 [Drug-3, NVP-CGM097]","Reporter signal, drug specificity",[1]; CDH1,58.9096 and 56.9625 and 57.522
same,"Reporter signal, drug specificity",[1]; CDH2,99.5028 and 95.5176 and 91.4654
same,"Reporter signal, drug specificity",[1]; CDH3,52.7796 and 52.4144 and 49.1641
same,Bottom (best-fit value),[2]; [4],2526
same,HillSlope (best-fit value),[2]; [4],-0.2874
same,Span (best-fit value),[2]; [4],8582
same,Top (best-fit value),[2]; [4],11108
same,logIC50 (best-fit value),"[2]; Fig5c Luciferase via CDH-3-TF, four-parameter fit, drug in nM",0.378
same,Luciferase,[2]; 0.001 nM,11408 and 10803 and 9477
same,Luciferase,[2]; 0.01 nM,8964 and 10094 and 8469
same,Luciferase,[2]; 0.05 nM,9839 and 9595 and 9040
same,Luciferase,[2]; 0.1 nM,9399 and 10012 and 6733
same,Luciferase,[2]; 0.5 nM,8698 and 9248 and 7194
same,Luciferase,[2]; 1 nM,7508 and 6014 and 5224
same,Luciferase,[2]; 5 nM,7040 and 7013 and 4899
same,Luciferase,[2]; 50 nM,6881 and 6483 and 4547
same,Luciferase,[2]; 100 nM,6853 and 5994 and 4849
same,Luciferase,[2]; 500 nM,3847 and 3669 and 3338
same,Luciferase,[2]; 1000 nM,2560 and 2436 and 2236
same,CDH-3-TF controlled Luciferase expression,"[2]; Fig S13c (with AIR-1-GEMS), Drug-3 0.01 nM",74322 RLU and 90639 RLU and 90152 RLU
same,CDH-3-TF controlled Luciferase expression,"[2]; Fig S13c (with AIR-1-GEMS), Drug-3 0.1 nM",79497 RLU and 97593 RLU and 89748 RLU
same,CDH-3-TF controlled Luciferase expression,"[2]; Fig S13c (with AIR-1-GEMS), Drug-3 1 nM",92895 RLU and 90324 RLU and 97096 RLU
same,CDH-3-TF controlled Luciferase expression,"[2]; Fig S13c (with AIR-1-GEMS), Drug-3 3.14 nM",89025 RLU and 81214 RLU and 83886 RLU
same,CDH-3-TF controlled Luciferase expression,"[2]; Fig S13c (with AIR-1-GEMS), Drug-3 10 nM",71915 RLU and 80976 RLU and 86610 RLU
same,CDH-3-TF controlled Luciferase expression,"[2]; Fig S13c (with AIR-1-GEMS), Drug-3 31.4 nM",73972 RLU and 79521 RLU and 71327 RLU
same,CDH-3-TF controlled Luciferase expression,"[2]; Fig S13c (with AIR-1-GEMS), Drug-3 100 nM",58208 RLU and 70422 RLU and 71065 RLU
same,CDH-3-TF controlled Luciferase expression,"[2]; Fig S13c (with AIR-1-GEMS), Drug-3 314 nM",42892 RLU and 48456 RLU and 50289 RLU
same,CDH-3-TF controlled Luciferase expression,"[2]; Fig S13c (with AIR-1-GEMS), Drug-3 1000 nM",30804 RLU and 29063 RLU and 25322 RLU
same,AIR-1-GEMS controlled SEAP expression,[2]; Drug-3 0.01 nM,2.627 U/L and 3.059 U/L and 3.456 U/L
same,AIR-1-GEMS controlled SEAP expression,[2]; Drug-3 0.1 nM,2.503 U/L and 2.294 U/L and 2.87 U/L
same,AIR-1-GEMS controlled SEAP expression,[2]; Drug-3 1 nM,2.418 U/L and 1.987 U/L and 3.339 U/L
same,AIR-1-GEMS controlled SEAP expression,[2]; Drug-3 3.14 nM,2.659 U/L and 2.285 U/L and 3.202 U/L
same,AIR-1-GEMS controlled SEAP expression,[2]; Drug-3 10 nM,2.675 U/L and 2.964 U/L and 4.021 U/L
same,AIR-1-GEMS controlled SEAP expression,[2]; Drug-3 31.4 nM,3.041 U/L and 3.191 U/L and 3.396 U/L
same,AIR-1-GEMS controlled SEAP expression,[2]; Drug-3 100 nM,2.602 U/L and 2.779 U/L and 2.696 U/L
same,AIR-1-GEMS controlled SEAP expression,[2]; Drug-3 314 nM,2.611 U/L and 3.076 U/L and 2.832 U/L
same,AIR-1-GEMS controlled SEAP expression,[2]; Drug-3 1000 nM,3.25 U/L and 2.611 U/L and 2.639 U/L
same,CDH-3-TF controlled Luciferase expression,"[2]; Fig S13e (with AIR-2-GEMS), Drug-3 0.01 nM",41565 RLU and 51927 RLU and 50033 RLU
same,CDH-3-TF controlled Luciferase expression,"[2]; Fig S13e (with AIR-2-GEMS), Drug-3 0.1 nM",58083 RLU and 52382 RLU and 52587 RLU
same,CDH-3-TF controlled Luciferase expression,"[2]; Fig S13e (with AIR-2-GEMS), Drug-3 1 nM",58208 RLU and 58951 RLU and 60752 RLU
same,CDH-3-TF controlled Luciferase expression,"[2]; Fig S13e (with AIR-2-GEMS), Drug-3 3.14 nM",50716 RLU and 61071 RLU and 59090 RLU
same,CDH-3-TF controlled Luciferase expression,"[2]; Fig S13e (with AIR-2-GEMS), Drug-3 10 nM",56023 RLU and 57202 RLU and 60529 RLU
same,CDH-3-TF controlled Luciferase expression,"[2]; Fig S13e (with AIR-2-GEMS), Drug-3 31.4 nM",53333 RLU and 47578 RLU and 50640 RLU
same,CDH-3-TF controlled Luciferase expression,"[2]; Fig S13e (with AIR-2-GEMS), Drug-3 100 nM",44259 RLU and 48370 RLU and 51647 RLU
same,CDH-3-TF controlled Luciferase expression,"[2]; Fig S13e (with AIR-2-GEMS), Drug-3 314 nM",32705 RLU and 39602 RLU and 35080 RLU
same,CDH-3-TF controlled Luciferase expression,"[2]; Fig S13e (with AIR-2-GEMS), Drug-3 1000 nM",15038 RLU and 22579 RLU and 17745 RLU
same,AIR-2-GEMS controlled SEAP expression,[2]; Drug-3 0.01 nM,23.8276 U/L and 27.0293 U/L and 24.7478 U/L
same,AIR-2-GEMS controlled SEAP expression,[2]; Drug-3 0.1 nM,31.2293 U/L and 29.7436 U/L and 28.9473 U/L
same,AIR-2-GEMS controlled SEAP expression,[2]; Drug-3 1 nM,33.4988 U/L and 33.4382 U/L and 38.599 U/L
same,AIR-2-GEMS controlled SEAP expression,[2]; Drug-3 3.14 nM,29.7735 U/L and 33.7772 U/L and 32.4262 U/L
same,AIR-2-GEMS controlled SEAP expression,[2]; Drug-3 10 nM,34.6343 U/L and 33.3124 U/L and 32.8022 U/L
same,AIR-2-GEMS controlled SEAP expression,[2]; Drug-3 31.4 nM,36.5713 U/L and 29.6375 U/L and 31.1491 U/L
same,AIR-2-GEMS controlled SEAP expression,[2]; Drug-3 100 nM,34.5656 U/L and 34.2561 U/L and 36.2322 U/L
same,AIR-2-GEMS controlled SEAP expression,[2]; Drug-3 314 nM,30.9331 U/L and 30.4872 U/L and 34.4499 U/L
same,AIR-2-GEMS controlled SEAP expression,[2]; Drug-3 1000 nM,13.1028 U/L and 12.5357 U/L and 11.75 U/L
same,IC50,"[2]; Homo sapiens, HEK-293T, Fig5c Luciferase turn OFF via CDH-3-TF, four-parameter fit, read-out: IC50 (best-fit value)",2.39 nM
same,Reporter background signal,"[3]; Suppl Fig 7a, TF reporter (S132) only",2.305 and 2.301 and 2.45
same,Reporter background signal,"[3]; Suppl Fig 7e, GEMS reporter (pLS566) only",5.089 and 3.395 and 2.755
